Here are results for 3 molecules from patent US7569547B2, “Inhibiting furin with polybasic peptides” (Board of Supervisors of Louisiana State University and …, priority 2001, dated 2009).

What all share (format): biochemical
One assay addresses T1, recombinant mouse furin (Mus musculus, UniProt P23188).
T1 construct: truncated N-terminally to the transmembrane domain at His^711 using PCR; myc (C, cleaved yes); hexa-His (C, cleaved yes); made in house; host or cells: DG44 CHO cells, conditioned medium
As to the kind of experiment: Furin enzyme assay, hydrolysis of pERTKR-MCA at pH 7.0. Conditions: for type of inhibition of furin (Lineweaver-Burk plots): furin 30 nM, 0, 20 or 40 μM hexapeptide, polyarginines forty-fold lower. An excerpt: Recombinant convertase preparation. The mouse furin clone was a kind gift from K. Nakayama (Fukuoka University School of Medicine, Fukuoka, Japan). The mouse furin cDNA was truncated N-terminally to the transmembrane domain at His^711 using PCR. This PCR product was then subcloned into pcDNA3.1 (−) myc-His (Invitrogen) at the Nhe1 and Xba1 restriction sites. Dihydrofolate-reductase-negative DG44 Chinese Hamster Ovary (CHO) cells (L. Chasin, Columbia University, New York, N.Y.) were transfected using Lipofectin (Life Technologies), and colonies were selected at 37° C. in 5% CO2 in α-MEM (lacking nucleosides) containing 10% well-dialyzed fetal bovine serum (Life Technologies). Conditioned media from colonies were screened using an enzyme assay (see below), and a high-expressing clone was selected. Overexpression of furin was achieved by increasing the methotrexate concentration from 5 nM to 50 μM in five- to ten-fold steps as described in I. Lindberg et al., Methods Neurosci., vol. 23, pp. 94-108 (1995). The amplified lines were tested for increased furin expression by enzyme assay. Once the 50 μM methotrexate level had been reached, cells were split at ratios of 1:6 twice a week. 100 mL of conditioned media (OptiMEM, Life Technologies) containing 100 μg/mL aprotinin (Miles Laboratories, Kankakee, Ill.) was collected from confluent roller bottles every 24 h. The medium was then centrifuged at low speed to remove cells, and the supernatant was stored at −80° C. until use.
Purification of furin: Conditioned medium was thawed, pooled, and diluted 1:3.5 with buffer A (20 mM HEPES, 0.1% Brij 35, 5 mM CaCl2, pH 7.4), and pumped at 40 mL/min through a Sartorius D100 anion exchange membrane. The membrane was washed with 40 mL of buffer A, followed by 40 mL of buffer A containing 50 mM NaCl, and finally by 40 mL of buffer A containing 200 mM NaCl. The fraction eluting with 200 mM NaCl was diluted 1:4 with buffer A and applied to a 1 mL Pharmacia Mono Q HR5/5 anion exchange column at a flow rate of 1 mL/min. Following a 10 mL wash with buffer A, furin was eluted by a linear increase of 0 to 500 mM NaCl in buffer A over 30 mL; and 2 mL fractions were collected. Fractions containing peak activity were pooled, and 200 μL aliquots were subjected to gel permeation chromatography using a Pharmacia Superose 12 column at a flow rate of 0.5 mL/min of buffer A containing 200 mM NaCl. Fractions were assayed for activity as described below; protein content was determined using the Bradford method. All purification steps were performed at 4° C.
(§1) Enzyme Assays and Hexapeptide Library Screening. Enzyme assays for PC1 and PC2 were performed at pH 5.0 using pERTKR-MCA (Peptides International Inc., Louisville, Ky.) as described in E. Apletalina et al., J. Biol. Chem., vol. 273, pp. 26589-26595 (1998). The assay for furin was performed using the same substrate at pH 7.0 in 100 mM HEPES, 5 mM CaCl2, 0.1% Brij 35. All assays were performed at 37° C. in a 96 well fluorometer (Labsystems) at an excitation wavelength of 380 nm with emission monitored at a wavelength of 460 nm. The total volume was 50 μL. Unless otherwise stated, the final substrate concentration for all assays was 200 μM. When used in a particular experiment, the inhibitory peptides were pre-incubated with enzyme for 30 min at room temperature prior to addition of substrate. All assays were performed in duplicate or triplicate.

The target of a further assay is T2, furin (Mus musculus, UniProt P23188).
T2 construct: truncated N-terminally to the transmembrane domain at His^711 using PCR; myc (C, cleaved yes); hexa-His (C, cleaved yes); made in house; host or cells: DG44 CHO cells, conditioned medium
T2 sequence (P23188 108-714 limits assumed): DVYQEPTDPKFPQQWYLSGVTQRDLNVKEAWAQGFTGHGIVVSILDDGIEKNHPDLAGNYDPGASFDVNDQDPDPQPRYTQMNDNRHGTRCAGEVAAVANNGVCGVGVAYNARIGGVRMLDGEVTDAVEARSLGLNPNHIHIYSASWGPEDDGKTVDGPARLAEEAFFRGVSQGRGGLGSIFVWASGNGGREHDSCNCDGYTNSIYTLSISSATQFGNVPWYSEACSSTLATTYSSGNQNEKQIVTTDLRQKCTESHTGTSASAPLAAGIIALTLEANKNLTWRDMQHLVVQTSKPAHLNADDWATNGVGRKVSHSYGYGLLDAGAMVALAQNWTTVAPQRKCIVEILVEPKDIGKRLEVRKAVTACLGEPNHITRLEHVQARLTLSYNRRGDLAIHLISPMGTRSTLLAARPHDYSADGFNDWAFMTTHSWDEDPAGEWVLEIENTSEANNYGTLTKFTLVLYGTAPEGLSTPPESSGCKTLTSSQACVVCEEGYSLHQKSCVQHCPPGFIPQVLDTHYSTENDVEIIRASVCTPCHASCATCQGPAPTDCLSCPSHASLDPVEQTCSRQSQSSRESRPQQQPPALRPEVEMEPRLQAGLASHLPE
The experiment in a line: Cleavage of polyarginines by furin, HPLC analysis. The protocol:
Absorbance was monitored at 214 nm. Cleavage products were identified by comparison to polyarginine standards.
Cleavage of Nona-L-arginine (SEQ ID NO 13) and Hexa-L-arginine (SEQ ID NO 14) by Furin. FIGS. 10(a) through (h) depict the cleavage of nona-L-arginine (SEQ ID NO 13) and hexa-L-arginine (SEQ ID NO 14) by furin. Furin (FIGS. (10(b), (c), (d), (e), and (g)) or buffer (FIGS. 10(f) and (h) was incubated with nona-L-arginine (SEQ ID NO 13) (FIGS. 10(b), (c), (d), (e), and (f) or hexa-L-arginine (SEQ ID NO 14) (FIGS. (10(g) and (h) at 37° C. for 0 min (FIG. (10(b)), 40 min (FIG. 10(c)), 6 h (FIG. 10(d)), or 24 h (FIGS. 10(e), (f), (g), and (h) prior to separation by HPLC as described in the experimental procedures. In FIG. 10(a) the simple separation of a standard mixture polyarginines (without enzyme) is shown; the number of residues per poly-L-arginine is indicated by the positions of the arrows at the tops of FIGS. 10(a) and (e).

Another assay concerns the target T3, PC1 (Mus musculus, UniProt P63239).
T3 construct: made in house
T3 sequence (P63239 111-753): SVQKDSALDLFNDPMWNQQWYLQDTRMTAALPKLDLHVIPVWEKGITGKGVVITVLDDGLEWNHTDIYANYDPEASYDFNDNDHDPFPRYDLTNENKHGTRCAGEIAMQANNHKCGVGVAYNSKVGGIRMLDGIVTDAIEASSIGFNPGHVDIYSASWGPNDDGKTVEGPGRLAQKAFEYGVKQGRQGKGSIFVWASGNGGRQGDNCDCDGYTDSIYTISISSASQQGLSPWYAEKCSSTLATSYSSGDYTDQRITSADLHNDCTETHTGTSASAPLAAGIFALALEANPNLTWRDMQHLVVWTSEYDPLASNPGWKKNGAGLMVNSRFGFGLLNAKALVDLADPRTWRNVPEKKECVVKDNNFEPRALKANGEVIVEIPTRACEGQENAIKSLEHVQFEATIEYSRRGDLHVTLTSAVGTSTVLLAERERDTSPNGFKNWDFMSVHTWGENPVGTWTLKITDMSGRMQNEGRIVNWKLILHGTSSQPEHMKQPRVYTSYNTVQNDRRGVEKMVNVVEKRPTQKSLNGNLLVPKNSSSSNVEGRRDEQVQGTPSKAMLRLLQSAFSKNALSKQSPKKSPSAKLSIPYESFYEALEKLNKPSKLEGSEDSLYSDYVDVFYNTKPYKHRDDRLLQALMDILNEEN
As to the kind of experiment: biochemical. The method, then:
The proprotein convertases PC1 and PC2 were prepared by ion exchange chromatography as described in G. Frenette et al., Biochim. Biophys. Acta., vol. 1334, pp. 109-115 (1997).
as §1

T1 sequence (P23188 108-714 limits assumed): as the sequence (P23188 108-714 limits assumed) above

On to `N=C(N)NCCC[C@@H](NC(=O)[C@H](N)CCCN=C(N)N)C(=O)N[C@H](CCCNC(=N)N)C(=O)N[C@H](CCCNC(=N)N)C(=O)N[C@H](CCCNC(=N)N)C(=O)N[C@H](CCCN=C(N)N)C(=O)O` [Hexa-D-arginine], for which the “type of inhibition of furin (Lineweaver-Burk plots)” value (“type of inhibition of furin” for short) at recombinant mouse furin is reported as “strictly competitive-type inhibition”. Also, the cleavage by furin entry at furin (after 24 hours incubation) was “essentially no cleavage”. The affinity at PC1 corresponds to a Ki of 13 ± 0.25 µM.

Turning to `N=C(N)NCCC[C@H](NC(=O)[C@H](CCCNC(=N)N)NC(=O)[C@H](CCCNC(=N)N)NC(=O)[C@H](CCCNC(=N)N)NC(=O)[C@H](CCCNC(=N)N)NC(=O)[C@@H](N)CCCNC(=N)N)C(=O)O` [Hexa-L-arginine], the “type of inhibition of furin” value at recombinant mouse furin is recorded as “strictly competitive-type inhibition”. The cleavage by furin result on furin (after 24 hours incubation) is “partial digestion”; on furin (after six hours incubation), “essentially no cleavage”. The Ki (as a rule, the equilibrium dissociation constant of an inhibitor or competing ligand from its target) on PC1 came to 3.9 ± 0.62 µM.

In the case of `N=C(N)NCCC[C@H](NC(=O)[C@H](CCCNC(=N)N)NC(=O)[C@H](CCCNC(=N)N)NC(=O)[C@H](CCCNC(=N)N)NC(=O)[C@H](CCCNC(=N)N)NC(=O)[C@H](CCCNC(=N)N)NC(=O)[C@H](CCCNC(=N)N)NC(=O)[C@H](CCCNC(=N)N)NC(=O)[C@@H](N)CCCNC(=N)N)C(=O)O` [Nona-L-arginine], on recombinant mouse furin, the Ki is 0.042 µM and the “type of inhibition of furin” value is listed as “strictly competitive-type inhibition”. The “time at which cleavage by furin was first observed” value on furin (200 μM peptide, 1.7 μM furin, 37° C.) is given as approximately 40 min. The original peptide remaining entry at furin (after four hours with furin, 37° C.) was “essentially none”. This molecule also showed a Ki on PC1 of 12 ± 2.5 µM.
